The results in this text go back to patent US4727080A, “1-substituted derivatives of 6-fluoro-7-(pyrrol-1-yl)-1,4-dihydro-4-oxoquinoline-3-carboxylic acid, their preparation and their application as drugs” (Provesan S.A., priority 1984, dated 1988).

≈ marks a conversion by molar mass, not a printed value.

Series [1] concerns Serratia marcescens ATTC 13880. The series can be described thus: "In vitro" MIC, Serratia marcescens. Format: cell-based. Conditions: ATTC13880; Serratia marcescens ATTC 13880; dextrose agar, 37° C., 20 hours; read-out: "In vitro" MIC. The method, then: (§1) Antimicrobial pharmacological activity (G. L. Daquet and Y. A. Chabbect, Techniques en bacteriologie (Techniques in bacteriology), vol. 3, Flammarion Medecine-Sciences, Paris, 1972, and W. B. Hugo and A. D. Rusell, Pharmaceutical Microbiology, Blackwell Scientific Publications, London (1977).
Serratia marcescens ATTC 13880
(§2) A streak culture of each of the microorganisms is formed in tubes of antibiotics agar no. 1 and incubated for 20 hours at 37° C. A culture loop is then taken and a culture is formed in a tryptone-soya broth and incubated for 20 hours at 37° C. The resulting culture is diluted to 1/4 with Ringer's physiological solution to give a standardized suspension of 10^5 ufc/ml for each organism.
(§3) Starting from a solution of 1000 μg/ml in 0.1N NaOH, each product is diluted successively in dextrose agar (melted beforehand and kept at 50° C.) to give the following concentrations: 64-32-16-8-4-2-1-0.5-0.25-0.125 μg of derivative/ml of medium.
(§4) After this, each concentration of each product is divided up into Petri dishes of 10 cm diameter at a rate of 10 ml of medium per dish and using as many dishes as there are microorganisms to be tested.
(§5) Once the medium has cooled, the dishes are treated with the inoculations at a rate of 0.4 ml of inoculation per dish. They are spread out with a Drigalski loop and the supernatant is collected. The inoculated dishes are incubated at 37° C. for 20 hours.

Series [2] deals with Gram-negative microorganisms. Put plainly: "In vitro" antimicrobial activity compared with nalidixic acid, Gram-negative microorganisms. Format: cell-based. The method, then:
as §1, §2, §3, §4, §5

In series [3] the test system is Staphylococcus aureus ATCC 5488/23. The series can be described thus: "In vitro" MIC, Staphylococcus aureus ATCC 5488/23. It is filed as cell-based. Conditions: ATCC5488; Staphylococcus aureus ATCC 5488/23; dextrose agar, 37° C., 20 hours; read-out: "In vitro" MIC. The method, then:
as §1
Staphylococcus aureus ATCC 5488/23
as §2, §3, §4, §5

Series [4] deals with Citrobacter freundii ATCC 11606. The series can be described thus: "In vitro" MIC, Citrobacter freundii. Format: cell-based. Conditions: ATCC11606; Citrobacter freundii ATCC 11606; dextrose agar, 37° C., 20 hours; read-out: "In vitro" MIC. The method, then: as §1
Citrobacter freundii ATCC 11606
as §2, §3, §4, §5

Series [5] relates to Staphylococcus aureus ATCC 25178. Put plainly: "In vitro" MIC, Staphylococcus aureus ATCC 25178. Conditions: ATCC25178; Staphylococcus aureus ATCC 25178; dextrose agar, 37° C., 20 hours; read-out: "In vitro" MIC. Format: cell-based. The method, then: as §1
Staphylococcus aureus ATCC 25178
as §2, §3, §4, §5

A further series has as its system Shigella flexnerii. The series can be described thus: "In vitro" MIC, Shigella flexnerii. It is filed as cell-based. Conditions: 20 h, read-out: "In vitro" MIC. The method, then:
as §1, §2, §3, §4, §5

The subject of series [6] is Enterobacter aerogenes ATCC 15038. Put plainly: "In vitro" MIC, Enterobacter aerogenes. It is filed as cell-based. Conditions: Klebsiella aerogenes, ATCC15038; Enterobacter aerogenes ATCC 15038; dextrose agar, 37° C., 20 hours; read-out: "In vitro" MIC. The method, then: as §1
Enterobacter aerogenes ATCC 15038
as §2, §3, §4, §5

Series [7] deals with Bacillus subtilis ATCC 6633. Put plainly: "In vitro" MIC, Bacillus subtilis. It is filed as cell-based. Conditions: ATCC6633; Bacillus subtilis ATCC 6633; dextrose agar, 37° C., 20 hours; read-out: "In vitro" MIC. The method, then: as §1
Bacillus subtilis ATCC 6633
as §2, §3, §4, §5

Another series concerns Proteus morganii CHSP-16. The series can be described thus: "In vitro" MIC, Proteus morganii. Format: cell-based. Conditions: Morganella morganii, CHSP16; Proteus morganii CHSP-16; dextrose agar, 37° C., 20 hours; read-out: "In vitro" MIC. The method, then: as §1, §2, §3, §4, §5
The test system of series [8] is Salmonella typhimurium AMES 100. The series can be described thus: "In vitro" MIC, Salmonella typhimurium AMES 100. It is filed as cell-based. Conditions: Salmonella enterica; Salmonella typhimurium AMES 100; dextrose agar, 37° C., 20 hours; read-out: "In vitro" MIC. The method, then:
as §1
Salmonella typhimurium AMES 100
as §2, §3, §4, §5

In series [9] the test system is Streptococcus faecalis ATCC 10541. Put plainly: "In vitro" MIC, Streptococcus faecalis. It is filed as cell-based. Conditions: Enterococcus faecalis, ATCC10541; Streptococcus faecalis ATCC 10541; dextrose agar, 37° C., 20 hours; read-out: "In vitro" MIC. The method, then: as §1
Streptococcus faecalis ATCC 10541
as §2, §3, §4, §5

Series [10] relates to Pseudomonas aeruginosa 25115. Put plainly: "In vitro" MIC, Pseudomonas aeruginosa 25115. It is filed as cell-based. Conditions: Pseudomonas aeruginosa 25115; dextrose agar, 37° C., 20 hours; read-out: "In vitro" MIC. The method, then:
as §1
Pseudomonas aeruginosa 25115
as §2, §3, §4, §5

Series [11] has as its system Micrococcus flavus ATCC 10240. Put plainly: "In vitro" MIC, Micrococcus flavus. Format: cell-based. Conditions: ATCC10240; Micrococcus flavus ATCC 10240; dextrose agar, 37° C., 20 hours; read-out: "In vitro" MIC. The method, then:
as §1
Micrococcus flavus ATTC 10240
as §2, §3, §4, §5

The test system of a further series is Gram-positive cocci. Put plainly: "In vitro" antimicrobial activity compared with nalidixic acid, Gram-positive cocci. It is filed as cell-based. The method, then: as §1, §2, §3, §4, §5
In series [12] the test system is Enterobacter cloacae CHSP-20. Put plainly: "In vitro" MIC, Enterobacter cloacae. It is filed as cell-based. Conditions: CHSP20; Enterobacter cloacae CHSP-20; dextrose agar, 37° C., 20 hours; read-out: "In vitro" MIC. The method, then:
as §1
Enterobacter cloacae CHSP-20
as §2, §3, §4, §5

Series [13] relates to Escherichia coli ATCC 10536. Put plainly: "In vitro" MIC, Escherichia coli ATCC 10536. Conditions: ATCC10536; Escherichia coli ATCC 10536; dextrose agar, 37° C., 20 hours; read-out: "In vitro" MIC. It is filed as cell-based. The method, then:
as §1
Escherichia coli ATCC 10536
as §2, §3, §4, §5

The test system of series [14] is Pseudomonas aeruginosa ADSA 47. The series can be described thus: "In vitro" MIC, Pseudomonas aeruginosa ADSA 47. Format: cell-based. Conditions: ADSA47; Pseudomonas aeruginosa ADSA 47; dextrose agar, 37° C., 20 hours; read-out: "In vitro" MIC. The method, then:
as §1
Pseudomonas aeruginosa ADSA 47
as §2, §3, §4, §5

For series [15], the system named is Salmonella typhimurium AMES 98. The series can be described thus: "In vitro" MIC, Salmonella typhimurium AMES 98. Format: cell-based. Conditions: Salmonella enterica; Salmonella typhimurium AMES 98; dextrose agar, 37° C., 20 hours; read-out: "In vitro" MIC. The method, then:
as §1
Salmonella typhimurium AMES 98
as §2, §3, §4, §5

The nature of another series: Acute toxicity to mice. Conditions: mouse, in vivo, ip, suspension in 5% gum arabic, mortality over 7 days. The method, then: The experimental animals used to determine this toxicity were albino mice of the C.F.L.P. strain and of both sexes, weighing between 19 and 25 grams. After an 18-hour fasting period with water "ad libitum", the derivatives forming the subject of the present invention are administered intraperitoneally as a suspension in 5% gum arabic. The volume of suspension administered was 0.4 ml/20 grams (20 ml/kg) in all cases, the concentration of the suspension being changed according to the dose administered.
One hour after administration of the derivatives, the animals are given a standard Panlab rat-mouse food. The mortality was observed over a period of 7 days. Differences in mortality between the sexes were not observed with any of the products.

The test system of a further series is Escherichia coli R-1513. Put plainly: "In vitro" MIC, Escherichia coli R-1513. Conditions: R1513; Escherichia coli R-1513; dextrose agar, 37° C., 20 hours; read-out: "In vitro" MIC. Format: cell-based. The method, then:
as §1, §2, §3, §4, §5

Series [16] deals with Proteus mirabilis ATCC 4675. Put plainly: "In vitro" MIC, Proteus mirabilis. Format: cell-based. Conditions: ATCC4675; Proteus mirabilis ATCC 4675; dextrose agar, 37° C., 20 hours; read-out: "In vitro" MIC. The method, then:
as §1
Proteus mirabilis ATCC 4675
as §2, §3, §4, §5

Series [17] has as its system Klebsiella pneumoniae ATCC 10031. Put plainly: "In vitro" MIC, Klebsiella pneumoniae. Format: cell-based. Conditions: ATCC10031; Klebsiella pneumoniae ATCC 10031; dextrose agar, 37° C., 20 hours; read-out: "In vitro" MIC. The method, then:
as §1
Klebsiella pneumoniae ATCC 10031
as §2, §3, §4, §5

A further series concerns Sarcina lutea ATCC 9341. Put plainly: "In vitro" MIC, Sarcina lutea. Format: cell-based. Conditions: Micrococcus luteus, ATCC9341; Sarcina lutea ATCC 9341; dextrose agar, 37° C., 20 hours; read-out: "In vitro" MIC. The method, then: as §1, §2, §3, §4, §5

As usually defined, the MIC is the lowest concentration that inhibits growth of the organism. A word on the LD50: it is the dose at which mortality reaches 50%. In the case of `Cn1cc(C(=O)O)c(=O)c2cc(F)c(-n3cccc3)cc21` [Example 1, 6-fluoro-7-(pyrrol-1-yl)-1-methyl-4-oxo-1,4-dihydroquinoline-3-carboxylic acid], the MIC in [1] was found to be 16 µg/mL (≈ 55.9 µM); in series [3], 0.5 µg/mL (≈ 1.75 µM); in series [4], 2 µg/mL (≈ 6.99 µM); in series [5], 0.5 µg/mL (≈ 1.75 µM); in the series on Shigella flexnerii, 4 µg/mL (≈ 14 µM); in [6], 2 µg/mL (≈ 6.99 µM). The MIC in [7] amounted to 0.125 µg/mL (≈ 0.437 µM); with Proteus morganii CHSP-16 it was 2 µg/mL (≈ 6.99 µM); in series [8], 8 µg/mL (≈ 27.9 µM); in series [9], 32 µg/mL (≈ 112 µM); in series [10], 16 µg/mL (≈ 55.9 µM); in series [11], 4 µg/mL (≈ 14 µM). Also, the MIC is 2 µg/mL (≈ 6.99 µM) in series [12]; 0.05 µg/mL (≈ 0.175 µM) in series [13]; not below 32 µg/mL in series [14]; 4 µg/mL (≈ 14 µM) in series [15]; 4 µg/mL (≈ 14 µM) in the series on Escherichia coli R-1513; 4 µg/mL (≈ 14 µM) in [16]. The MIC was 1 µg/mL (≈ 3.49 µM) in [17] and 16 µg/mL (≈ 55.9 µM) with Sarcina lutea ATCC 9341. Further, the “activity compared with nalidixic acid” value in series [2] was “activity of the same order as nalidixic acid”. Besides, in the series on Gram-positive cocci, the “"in vitro" activity compared with nalidixic acid” value was “greater activity towards Gram-positive cocci”. The LD50 at 168 h in the series “Acute toxicity to mice” was more than 800 mg/kg.

On to `O=C(O)c1cn(CC2CC2)c2cc(-n3cccc3)c(F)cc2c1=O` [Example 4, 6-fluoro-7-(pyrrol-1-yl)-1-cyclopropylmethyl-4-oxo-1,4-dihydroquinoline-3-carboxylic acid], for which the MIC in series [1] was 4 µg/mL (≈ 12.3 µM); in series [3] it was 2 µg/mL (≈ 6.13 µM); in series [4], 16 µg/mL (≈ 49 µM); in series [5], 1 µg/mL (≈ 3.06 µM); in the series on Shigella flexnerii, 4 µg/mL (≈ 12.3 µM); in [6], 8 µg/mL (≈ 24.5 µM). Also, the MIC in series [7] is 0.125 µg/mL (≈ 0.383 µM); with Proteus morganii CHSP-16, 8 µg/mL (≈ 24.5 µM); in series [8] it was 2 µg/mL (≈ 6.13 µM); in [9], 16 µg/mL (≈ 49 µM); in series [10] it was not below 32 µg/mL; in series [11] it was 1 µg/mL (≈ 3.06 µM). Also, the MIC is 4 µg/mL (≈ 12.3 µM) in series [12]; 0.25 µg/mL (≈ 0.766 µM) in series [13]; not below 32 µg/mL in series [14]; 0.25 µg/mL (≈ 0.766 µM) in [15]; 8 µg/mL (≈ 24.5 µM) in the series with Escherichia coli R-1513; 32 µg/mL (≈ 98.1 µM) in series [16]. Also, the MIC in [17] was determined as 1 µg/mL (≈ 3.06 µM); with Sarcina lutea ATCC 9341, 8 µg/mL (≈ 24.5 µM). The “activity compared with nalidixic acid” value in [2] was “activity of the same order as nalidixic acid”. Further, in the series on Gram-positive cocci, the “"in vitro" activity compared with nalidixic acid” value is listed as “greater activity towards Gram-positive cocci”. Also, the LD50 at 168 h in the series “Acute toxicity to mice” is more than 1600 mg/kg.
